System: APJ-expressing primary allantoic cultures
Experiment: Allantoic explants treated with ligands, digital droplet PCR of gene expression
Format: cell-based, mouse
Conditions: 2.5 μM, 12 hours, ddPCR, ELA versus APLN
Experimental: Allantoic explants were microdissected from 4-5 somite stage embryos on the morning of the 8th day of conception in dissection medium (DMEM+Hepes+7.5% FCS), and cultured in DMEM+NaHCO3+50% rat serum, on poly-L-lysine coated microwells (Ibidi). […] 12 hours later, the explants were harvested by direct lysis and RNA extracted with the Nucleospin RNA XS kit (Machery Nagel). cDNA was made using the SMARTer® Pico PCR cDNA Synthesis Kit (Clontech) and gene quantitation was performed using digital droplet PCR (Biorad) with EvaGreen and PrimeTime probes listed below: […]

APLN: APLN-36 (Sigma); Apelin, the alternate ligand for APJ (LVQPRGSRNGPGPWQGGRRKFRRQRPRLSHKGPMPF; Apelin-36; UniProt Q9ULZ1 42-77, looked up)
expression of hypoxic response genes (Foxoa3 and Hif3α): opposite effects | expression of Esm1: opposite effects

Reference: US20200179487A1, “METHODS OF DIAGNOSIS AND TREATMENT OF PRE-ECLAMPSIA” (AGENCY FOR SCIENCE, TECHNOLOGY AND RESEARCH, priority 2016, published 2020)
